Assay results reported in article PMC10591299, “Targeting SHP2 with an Active Site Inhibitor Blocks Signaling and Breast Cancer Cell Phenotypes” (ACS Bio & Med Chem Au, 2023).
Where two headings read alike, the source gives them in different places.

Assays:
[1] = biological target: T1, SHP2 (Homo sapiens, UniProt Q06124); test: PTPase assay, GST-fusion PTP domain of SHP2, DiFMUP substrate; type: biochemical; details: for fold difference: SHP2 IC50 relative to CNBCA
T1 construct: the GST fusion of the PTP domains of SHP2, SHP1, and PTP1B were produced and purified as reported by us previously; GST; made in house
T1 sequence (Q06124 247-517 limits assumed): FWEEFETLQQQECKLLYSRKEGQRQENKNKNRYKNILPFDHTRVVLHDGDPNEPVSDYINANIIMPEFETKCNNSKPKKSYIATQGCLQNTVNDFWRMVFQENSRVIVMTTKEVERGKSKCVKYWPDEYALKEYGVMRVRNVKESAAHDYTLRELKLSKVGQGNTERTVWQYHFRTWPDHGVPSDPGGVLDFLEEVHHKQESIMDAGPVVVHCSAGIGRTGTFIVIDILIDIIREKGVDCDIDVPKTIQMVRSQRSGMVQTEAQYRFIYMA
Method: After completion of synthesis, both CNBCA and CNBBA were purified on silica gel, and purity was determined by HPLC. The purified compounds were then tested for their effect on the SHP2 enzyme activity and on the activity of the selected control PTPs (SHP1 and PTP1B) by the phosphotyrosyl phosphatase (PTPase) assay as described previously.[30],[31] First, the GST fusion of the PTP domains of SHP2, SHP1, and PTP1B were produced and purified as reported by us previously.[32] The reactions were performed in a buffer containing 10 mM Tris-HCl (pH 7.2), 100 mM NaCl, 1 mM EDTA, 1 mM dithiothreitol (DTT), and 0.01% Tween-20. Briefly, CNBCA or CNBBA was added first in a serial dilution ranging from 100 μM to 97 nM followed by the enzymes (SHP2, SHP1, or PTP1B) to a final concentration of 1 nM. After 5 min of incubation at room temperature, the reactions were started by adding the artificial substrate DiFMUP (6,8-difluoro-4-methylumbelliferyl phosphate) to a final concentration of 20 μM for SHP2, 35 μM for SHP1, and 10 μM for PTP1B in a reaction volume of 100 μL; variations in DiFMUP concentrations reflect the reported Km values for the respective PTPs.[33] The complete mixture was incubated at 37 °C for 20 min, and fluorescence intensity was measured by the Synergy 4 plate reader at the excitation and emission wavelengths of 360 and 460 nm, respectively. The half inhibitory concentration (IC50) value of each compound was calculated and plotted using Graphpad Prism software.
We used the PTPase assay described previously[30],[31] to evaluate the effect of the newly synthesized compounds on the enzymatic activity of SHP2, SHP1, and PTP1B. The PTP domains of the indicated proteins were prepared as reported by us recently.[32] The artificial PTP substrate DiFMUP (6,8-Difluoro-4-Methylumbelliferyl Phosphate) was purchased from Invitrogen. The purified proteins were dialyzed into a phosphatase buffer containing 10 mM Tris-HCl ([…]), 100 mM NaCl, 1.0 mM EDTA, 1.0 mM dithiothreitol (DTT), and 0.01% Tween-20. Briefly, the PTPase reactions were performed in 100 μL volume containing 1 nM enzyme, inhibitors in serial dilutions (12 nM to 100 μM), and DiFMUP to a final concentration of 20 μM for SHP2, 35 μM for SHP1, and 10 μM for PTP1B. Differences in DiFMUP concentrations reflect the reported Km values for each PTP.[37] The mixtures were incubated at 37 °C for 20 min and transferred to 96 well plates, and the fluorescence intensity was measured by a Synergy 4 plate reader at the excitation and emission wavelengths of 360 and 460 nm, respectively. Graphpad Prism software was used to calculate the IC50 values.

[2] = biological target: T1, SHP2; parameters: method as in PMID 33043190; details: previously published parent compound, included for comparison; cited from earlier work
[3] = biological target: T2, SHP1 (Homo sapiens, UniProt P29350); parameters: method as in PMID 33043190; details: previously shown; cited from earlier work
T2 construct: The GST fusion PTP domains of SHP1 and PTP1B were expressed and purified in a fashion similar to that of SHP2; GST; made in house
T2 sequence (P29350 244-515 limits assumed): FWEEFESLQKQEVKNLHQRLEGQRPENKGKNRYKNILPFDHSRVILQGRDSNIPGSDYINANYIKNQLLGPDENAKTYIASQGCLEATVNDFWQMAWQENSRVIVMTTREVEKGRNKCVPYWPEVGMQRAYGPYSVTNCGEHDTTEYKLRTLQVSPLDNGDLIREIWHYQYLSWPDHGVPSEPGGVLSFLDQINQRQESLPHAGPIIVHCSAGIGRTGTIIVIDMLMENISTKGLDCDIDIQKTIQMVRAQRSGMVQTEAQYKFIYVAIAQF

IC50 ([1]; PTP domain, 1 nM enzyme, 20 μM DiFMUP, 37 °C 20 min) [µM]	fold difference [1] [fold]	SMILES	IC50 [2] [µM]	selectivity for inhibition of SHP2 over SHP1 [3]
5.1	5.8	CCCCCCCCCOc1ccc(-c2ccc(CC(=O)O)cc2)cc1CCCC(=O)O [CNBBA, 4-(4′-(carboxymethyl)-4-(nonyloxy)-[1,1′-biphenyl]-3-yl) butanoic acid]	–	–
–	5.7	CCCCCCCCCOc1c(CCCC(=O)O)cc(-c2ccc(C(=O)O)cc2)cc1CCCC(=O)O [CNBDA]	5	approximately 25 fold
